Experimental data reported in ChEMBL document CHEMBL1201862, “PubChem BioAssay data set” (2004).
Activity calls are given as the source filed them. For most assays here, no stated cut-off is given here; in the data, actives have a measured IC50 and inactives only a lower limit.

Columns and labels:
Interleukin-8 [1] = molecular target: T1, Interleukin-8 (Homo sapiens, UniProt P10145); assay: SAR analysis of Tumor necrosis factor alpha (TNF-alpha) induced IL-8 secretion in MCF-7/NOD1 cells - Set 2. [Related pubchem assays (depositor defined):AID1575, AID2250, AID2260]; assay type: functional, cell-based
Interleukin-8 [2] = molecular target: T1, Interleukin-8; assay: SAR analysis of GM-Tri-DAP induced IL-8 secretion in MCF-7/NOD1 cells - Set 2. [Related pubchem assays (depositor defined):AID1575, AID1578, AID2333]; assay type: functional, cell-based
Tumor necrosis factor = Tumor necrosis factor (Homo sapiens, UniProt P01375); assay: analog potency on TNFa NF-kB signaling – cell-based, set 3, SAR follow-up (AID 2801); assay type: functional
HEK293 [3] = assay: SAR analysis of compounds that are cytotoxic to HEK293 - Set 3. [Related pubchem assays (depositor defined):AID1575, AID1578, AID1848, AID1849, AID2001, AID2333, AID2334, AID2335, AID2337, AID2469]; assay type: functional, cell-based; conditions: Homo sapiens
HEK293 [4] = assay: SAR analysis of compounds that are cytotoxic to HEK293 - Set 2. [Related pubchem assays (depositor defined):AID1575, AID1578, AID1849, AID2001, AID2333, AID2334, AID2335, AID2337, AID2800]; assay type: functional, cell-based; conditions: Homo sapiens
[5] = molecular target: T2, Nucleotide-binding oligomerization domain-containing protein 2 (Homo sapiens, UniProt Q9HC29); assay: inhibition of MDP-driven NOD2 NF-kB reporter – cell-based, set 3, SAR follow-up (AID 2799); assay type: functional
[6] = molecular target: T3, Nucleotide-binding oligomerization domain-containing protein 1 (Homo sapiens, UniProt Q9Y239); assay: SAR analysis of compounds that inhibit NOD1 - Set 3. [Related pubchem assays (depositor defined):AID1566, AID1575, AID1578, AID1849, AID1852, AID2333, AID2335, AID2466]; assay type: functional
[7] = molecular target: T2, Nucleotide-binding oligomerization domain-containing protein 2; assay: inhibition of NOD2 signaling – set 2, SAR follow-up (AID 2475); assay type: functional
[8] = molecular target: T3, Nucleotide-binding oligomerization domain-containing protein 1; assay: SAR analysis of NF-kappaB dependent luciferase using DAP as an inducer - Set 2. [Related pubchem assays (depositor defined):AID1566, AID1575, AID1578, AID1579, AID1849, AID1852, AID2264]; assay type: functional
Hexokinase HKDC1 = molecular target: T4, Hexokinase HKDC1 (Homo sapiens, UniProt Q2TB90); assay: activation of HKDC1 glucose phosphorylation – biochemical, W721R variant, dose response (AID 504730); assay type: functional
T4 sequence (Q2TB90 whole entry): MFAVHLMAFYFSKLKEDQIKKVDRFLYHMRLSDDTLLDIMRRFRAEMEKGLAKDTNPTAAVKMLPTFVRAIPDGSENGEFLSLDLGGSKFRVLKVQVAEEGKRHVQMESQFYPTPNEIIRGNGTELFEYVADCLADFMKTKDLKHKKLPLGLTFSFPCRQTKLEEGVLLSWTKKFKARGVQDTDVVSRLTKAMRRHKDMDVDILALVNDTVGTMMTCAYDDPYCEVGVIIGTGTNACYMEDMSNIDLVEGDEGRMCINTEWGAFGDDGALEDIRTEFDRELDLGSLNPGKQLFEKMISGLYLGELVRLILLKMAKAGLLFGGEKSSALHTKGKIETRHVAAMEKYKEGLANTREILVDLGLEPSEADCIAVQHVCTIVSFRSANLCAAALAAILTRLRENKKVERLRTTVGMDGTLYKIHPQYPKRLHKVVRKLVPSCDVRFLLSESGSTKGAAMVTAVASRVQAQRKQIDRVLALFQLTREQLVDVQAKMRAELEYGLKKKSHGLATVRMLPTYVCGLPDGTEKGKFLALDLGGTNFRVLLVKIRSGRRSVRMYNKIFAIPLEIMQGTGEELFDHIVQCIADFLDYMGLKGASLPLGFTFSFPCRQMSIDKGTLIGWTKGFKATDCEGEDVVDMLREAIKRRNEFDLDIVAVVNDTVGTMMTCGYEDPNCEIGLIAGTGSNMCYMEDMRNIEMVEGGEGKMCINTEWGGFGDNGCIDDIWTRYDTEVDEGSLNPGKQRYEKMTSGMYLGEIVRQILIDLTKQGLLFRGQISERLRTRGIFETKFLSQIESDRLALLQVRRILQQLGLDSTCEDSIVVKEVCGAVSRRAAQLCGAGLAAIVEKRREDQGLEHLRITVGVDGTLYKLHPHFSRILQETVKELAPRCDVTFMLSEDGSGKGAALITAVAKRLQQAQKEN

Hexokinase-1 = molecular target: T5, Hexokinase-1 (Homo sapiens, UniProt P19367); assay: HK1 enzyme activation by HKDC1 hits – biochemical, selectivity assay for HKDC1 activator project, dose response (AID 504762); assay type: functional
T5 sequence (P19367 whole entry): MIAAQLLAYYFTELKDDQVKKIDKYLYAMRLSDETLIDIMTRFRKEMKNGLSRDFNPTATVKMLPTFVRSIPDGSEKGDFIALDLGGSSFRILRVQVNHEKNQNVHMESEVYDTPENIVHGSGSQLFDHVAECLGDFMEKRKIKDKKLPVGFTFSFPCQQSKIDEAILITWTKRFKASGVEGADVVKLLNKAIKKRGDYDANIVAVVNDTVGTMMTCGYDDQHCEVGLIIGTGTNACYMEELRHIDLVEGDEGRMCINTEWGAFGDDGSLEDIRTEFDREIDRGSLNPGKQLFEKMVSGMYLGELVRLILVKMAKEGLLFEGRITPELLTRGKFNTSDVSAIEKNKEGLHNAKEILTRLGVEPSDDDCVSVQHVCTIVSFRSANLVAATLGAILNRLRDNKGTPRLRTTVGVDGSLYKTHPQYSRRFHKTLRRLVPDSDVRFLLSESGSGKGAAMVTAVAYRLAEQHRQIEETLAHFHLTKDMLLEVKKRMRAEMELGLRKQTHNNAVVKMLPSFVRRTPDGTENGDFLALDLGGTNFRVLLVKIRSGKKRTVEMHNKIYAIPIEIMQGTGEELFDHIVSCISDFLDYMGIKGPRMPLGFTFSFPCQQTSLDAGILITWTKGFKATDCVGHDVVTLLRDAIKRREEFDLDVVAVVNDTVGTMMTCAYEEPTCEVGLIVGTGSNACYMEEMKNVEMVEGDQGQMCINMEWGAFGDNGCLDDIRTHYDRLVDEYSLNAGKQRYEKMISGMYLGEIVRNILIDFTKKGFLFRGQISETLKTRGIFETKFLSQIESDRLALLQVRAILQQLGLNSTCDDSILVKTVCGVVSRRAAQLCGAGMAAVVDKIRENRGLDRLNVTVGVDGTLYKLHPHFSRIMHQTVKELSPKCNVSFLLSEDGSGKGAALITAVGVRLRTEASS

[9] = molecular target: Signal transducer and activator of transcription 1-alpha/beta (Homo sapiens, UniProt P42224); assay: STAT3 blockade with qPCR and toxicity readouts – cell-based, STAT1 panel, cytotoxicity, late-stage follow-up, panel member STAT1 Inhibition (AID 2078)
[10] = molecular target: Signal transducer and activator of transcription 3 (Homo sapiens, UniProt P40763); assay: STAT3 blockade with qPCR and toxicity readouts – cell-based, STAT1 panel, cytotoxicity, late-stage follow-up, panel member STAT3 Inhibition (AID 2078)
[11] = molecular target: T6, Intestinal-type alkaline phosphatase (Homo sapiens, UniProt P09923); assay: human intestinal alkaline phosphatase activators, dose response, biochemical, luminescence, uHTS hits (AID 463120); assay type: functional
[12] = molecular target: T6, Intestinal-type alkaline phosphatase; assay: Dose Response confirmation of uHTS hits from a small molecule inhibitors of human intestinal alkaline phosphatase via a luminescent assay. [Related pubchem assays (depositor defined):AID2544, AID2574]; assay type: functional
[13] = molecular target: T7, Tyrosine-protein phosphatase non-receptor type 7 (Homo sapiens, UniProt P35236); assay: redox-active compounds inhibiting HePTP phosphatase – biochemical, fluorescence, mechanism study (AID 2068); assay type: functional
T7 sequence (P35236 whole entry): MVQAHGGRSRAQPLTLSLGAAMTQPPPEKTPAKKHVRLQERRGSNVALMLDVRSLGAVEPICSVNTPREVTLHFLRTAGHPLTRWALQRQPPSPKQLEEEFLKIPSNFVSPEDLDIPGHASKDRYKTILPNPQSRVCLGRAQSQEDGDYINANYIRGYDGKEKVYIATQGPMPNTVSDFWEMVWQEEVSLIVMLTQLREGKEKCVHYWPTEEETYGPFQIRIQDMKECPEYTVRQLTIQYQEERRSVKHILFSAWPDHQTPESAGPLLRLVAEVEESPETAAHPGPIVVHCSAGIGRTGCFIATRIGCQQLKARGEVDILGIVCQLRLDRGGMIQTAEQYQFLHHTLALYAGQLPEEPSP

[14] = molecular target: T8, Dual specificity protein phosphatase 3 (Homo sapiens, UniProt P51452); assay: SAR VHR1 Fluorescent Assay for In Vitro dose response studies. [Related pubchem assays (depositor defined):AID1654, AID1661, AID1878, AID1992, AID2004, AID2070, AID2085]; assay type: functional
[15] = molecular target: T9, Tyrosine-protein phosphatase non-receptor type 22 (Homo sapiens, UniProt Q9Y2R2); assay: SAR LYP1 Fluorescent Assay using OMFP substrate for In Vitro dose response studies - Set 3. [Related pubchem assays (depositor defined):AID1779, AID1784, AID2140, AID2686]; assay type: functional
T9 sequence (Q9Y2R2 whole entry): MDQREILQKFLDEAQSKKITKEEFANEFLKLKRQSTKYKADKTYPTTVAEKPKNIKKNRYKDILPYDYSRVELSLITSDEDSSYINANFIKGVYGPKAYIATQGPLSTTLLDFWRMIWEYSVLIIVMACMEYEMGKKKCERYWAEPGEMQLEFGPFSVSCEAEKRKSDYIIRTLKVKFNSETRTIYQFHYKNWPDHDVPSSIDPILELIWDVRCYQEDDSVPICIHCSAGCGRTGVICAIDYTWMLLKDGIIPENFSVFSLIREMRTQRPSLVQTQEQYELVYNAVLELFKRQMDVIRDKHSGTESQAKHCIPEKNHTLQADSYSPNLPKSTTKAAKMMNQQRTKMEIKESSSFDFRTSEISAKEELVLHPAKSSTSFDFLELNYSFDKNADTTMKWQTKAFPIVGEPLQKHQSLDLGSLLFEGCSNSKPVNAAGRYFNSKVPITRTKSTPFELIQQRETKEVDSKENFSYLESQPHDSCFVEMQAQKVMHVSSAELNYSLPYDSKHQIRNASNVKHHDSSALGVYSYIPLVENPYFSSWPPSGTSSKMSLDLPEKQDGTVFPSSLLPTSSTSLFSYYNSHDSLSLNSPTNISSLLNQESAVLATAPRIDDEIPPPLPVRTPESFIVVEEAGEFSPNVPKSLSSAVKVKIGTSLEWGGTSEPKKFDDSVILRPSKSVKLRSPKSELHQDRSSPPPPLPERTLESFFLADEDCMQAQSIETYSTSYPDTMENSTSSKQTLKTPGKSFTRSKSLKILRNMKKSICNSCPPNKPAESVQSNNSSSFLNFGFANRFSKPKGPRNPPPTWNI

[16] = molecular target: T9, Tyrosine-protein phosphatase non-receptor type 22; assay: inhibition of lymphoid tyrosine phosphatase LYP – biochemical, pCAP fluorogenic substrate, fluorescence, set 3, SAR follow-up (AID 449727); assay type: functional
[17] = molecular target: T10, Dual specificity protein phosphatase 6 (Rattus norvegicus, UniProt Q64346); assay type: functional;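 further: confirmatory in vitro dose-response testing of MKP-3 inhibition; recombinant His-tagged MKP-3 made in E. coli BL21 with OMFP substrate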
T10 sequence (Q64346 whole entry): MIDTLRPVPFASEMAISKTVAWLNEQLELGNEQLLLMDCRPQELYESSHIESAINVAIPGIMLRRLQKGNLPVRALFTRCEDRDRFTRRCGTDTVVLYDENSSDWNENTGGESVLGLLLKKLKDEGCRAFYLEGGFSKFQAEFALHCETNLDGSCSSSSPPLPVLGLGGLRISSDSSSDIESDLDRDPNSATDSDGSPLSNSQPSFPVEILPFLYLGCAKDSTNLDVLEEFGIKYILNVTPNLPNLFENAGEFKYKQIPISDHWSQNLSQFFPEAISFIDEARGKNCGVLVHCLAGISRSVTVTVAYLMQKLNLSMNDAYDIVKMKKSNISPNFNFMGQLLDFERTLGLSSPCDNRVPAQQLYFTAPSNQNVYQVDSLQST

[18] = molecular target: T7, Tyrosine-protein phosphatase non-receptor type 7; assay: inhibition of hematopoietic tyrosine phosphatase HePTP – biochemical, set 2, SAR follow-up (AID 449736); assay type: functional
[19] = molecular target: T8, Dual specificity protein phosphatase 3; assay: SAR VHR1 absorbance Assay for In Vitro dose response studies. [Related pubchem assays (depositor defined):AID1654, AID1661, AID1878, AID1992, AID2004]
[20] = molecular target: Tyrosine-protein phosphatase non-receptor type 12 (Homo sapiens, UniProt Q05209); assay: SAR Selectivity Analysis of small molecule inhibitors of PEST using pCAP in a fluorescence assay. [Related pubchem assays (depositor defined):AID1779, AID1784, AID2135]; assay type: functional
Tyrosine-protein phosphatase non-receptor type 12, sequence (Q05209 whole entry): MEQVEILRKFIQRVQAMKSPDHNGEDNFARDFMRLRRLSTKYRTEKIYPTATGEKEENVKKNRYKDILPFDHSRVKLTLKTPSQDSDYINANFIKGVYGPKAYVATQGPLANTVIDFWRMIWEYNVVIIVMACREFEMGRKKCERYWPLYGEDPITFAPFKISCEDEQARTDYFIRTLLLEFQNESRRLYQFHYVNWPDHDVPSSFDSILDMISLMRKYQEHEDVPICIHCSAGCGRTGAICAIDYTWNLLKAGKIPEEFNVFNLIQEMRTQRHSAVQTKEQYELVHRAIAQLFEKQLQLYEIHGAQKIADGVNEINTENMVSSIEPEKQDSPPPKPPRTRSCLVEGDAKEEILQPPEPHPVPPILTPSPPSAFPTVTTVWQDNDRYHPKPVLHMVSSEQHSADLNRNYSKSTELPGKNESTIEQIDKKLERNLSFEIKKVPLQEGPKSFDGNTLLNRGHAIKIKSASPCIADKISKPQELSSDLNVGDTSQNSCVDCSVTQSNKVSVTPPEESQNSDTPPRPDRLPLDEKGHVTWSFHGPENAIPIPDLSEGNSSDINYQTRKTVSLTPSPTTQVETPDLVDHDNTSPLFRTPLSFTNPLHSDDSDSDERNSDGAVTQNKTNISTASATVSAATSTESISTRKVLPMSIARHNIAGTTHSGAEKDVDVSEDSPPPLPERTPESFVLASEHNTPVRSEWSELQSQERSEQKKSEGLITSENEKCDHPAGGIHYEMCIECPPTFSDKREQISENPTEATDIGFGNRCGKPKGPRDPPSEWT

T3 sequence (Q9Y239 whole entry, the tested form may be a part): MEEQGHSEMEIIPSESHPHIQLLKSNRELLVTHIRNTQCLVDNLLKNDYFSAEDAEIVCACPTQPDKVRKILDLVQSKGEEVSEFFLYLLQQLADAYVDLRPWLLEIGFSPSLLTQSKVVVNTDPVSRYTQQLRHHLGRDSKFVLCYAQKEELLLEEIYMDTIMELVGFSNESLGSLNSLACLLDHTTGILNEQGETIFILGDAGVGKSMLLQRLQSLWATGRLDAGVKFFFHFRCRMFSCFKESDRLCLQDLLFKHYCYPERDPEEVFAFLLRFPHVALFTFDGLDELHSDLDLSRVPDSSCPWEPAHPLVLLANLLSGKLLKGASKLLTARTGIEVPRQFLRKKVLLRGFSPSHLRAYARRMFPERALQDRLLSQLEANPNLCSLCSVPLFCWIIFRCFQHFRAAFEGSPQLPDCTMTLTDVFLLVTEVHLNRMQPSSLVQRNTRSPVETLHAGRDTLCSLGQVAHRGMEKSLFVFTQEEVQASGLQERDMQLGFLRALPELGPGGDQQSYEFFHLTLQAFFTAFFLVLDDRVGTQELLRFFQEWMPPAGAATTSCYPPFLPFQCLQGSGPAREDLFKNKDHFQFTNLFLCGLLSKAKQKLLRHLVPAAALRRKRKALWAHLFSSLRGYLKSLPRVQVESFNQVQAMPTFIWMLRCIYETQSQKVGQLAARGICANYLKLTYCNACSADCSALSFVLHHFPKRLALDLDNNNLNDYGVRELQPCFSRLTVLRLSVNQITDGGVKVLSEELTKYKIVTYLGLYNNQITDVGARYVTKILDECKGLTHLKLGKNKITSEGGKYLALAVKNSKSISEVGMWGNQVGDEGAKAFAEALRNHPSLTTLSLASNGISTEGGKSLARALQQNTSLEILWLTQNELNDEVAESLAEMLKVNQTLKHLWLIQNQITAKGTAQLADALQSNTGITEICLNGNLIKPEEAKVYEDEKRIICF
T6 sequence (P09923 whole entry): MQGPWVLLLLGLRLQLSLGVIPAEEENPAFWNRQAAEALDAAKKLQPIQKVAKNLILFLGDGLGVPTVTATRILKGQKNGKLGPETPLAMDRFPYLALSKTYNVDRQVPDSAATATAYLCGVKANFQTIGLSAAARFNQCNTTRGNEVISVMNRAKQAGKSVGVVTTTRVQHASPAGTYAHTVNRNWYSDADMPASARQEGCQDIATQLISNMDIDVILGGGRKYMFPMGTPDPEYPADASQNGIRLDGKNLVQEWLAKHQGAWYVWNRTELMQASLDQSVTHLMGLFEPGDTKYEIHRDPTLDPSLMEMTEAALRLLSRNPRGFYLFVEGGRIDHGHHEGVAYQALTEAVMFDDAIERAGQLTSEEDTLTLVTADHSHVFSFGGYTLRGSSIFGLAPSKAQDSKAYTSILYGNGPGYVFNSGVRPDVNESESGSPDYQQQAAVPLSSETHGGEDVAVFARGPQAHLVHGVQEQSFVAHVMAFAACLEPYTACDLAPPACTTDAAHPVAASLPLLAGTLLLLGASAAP
T8 sequence (P51452 whole entry): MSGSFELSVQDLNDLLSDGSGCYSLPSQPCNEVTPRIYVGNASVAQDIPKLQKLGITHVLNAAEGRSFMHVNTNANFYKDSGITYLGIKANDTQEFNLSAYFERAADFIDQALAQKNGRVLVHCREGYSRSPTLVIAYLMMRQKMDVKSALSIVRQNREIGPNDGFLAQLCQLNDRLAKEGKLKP
T1 sequence (P10145 whole entry): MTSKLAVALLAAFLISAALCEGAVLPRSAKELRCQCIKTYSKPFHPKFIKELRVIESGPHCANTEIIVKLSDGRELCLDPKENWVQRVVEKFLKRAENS
T2 sequence (Q9HC29 whole entry, the tested form may be a part): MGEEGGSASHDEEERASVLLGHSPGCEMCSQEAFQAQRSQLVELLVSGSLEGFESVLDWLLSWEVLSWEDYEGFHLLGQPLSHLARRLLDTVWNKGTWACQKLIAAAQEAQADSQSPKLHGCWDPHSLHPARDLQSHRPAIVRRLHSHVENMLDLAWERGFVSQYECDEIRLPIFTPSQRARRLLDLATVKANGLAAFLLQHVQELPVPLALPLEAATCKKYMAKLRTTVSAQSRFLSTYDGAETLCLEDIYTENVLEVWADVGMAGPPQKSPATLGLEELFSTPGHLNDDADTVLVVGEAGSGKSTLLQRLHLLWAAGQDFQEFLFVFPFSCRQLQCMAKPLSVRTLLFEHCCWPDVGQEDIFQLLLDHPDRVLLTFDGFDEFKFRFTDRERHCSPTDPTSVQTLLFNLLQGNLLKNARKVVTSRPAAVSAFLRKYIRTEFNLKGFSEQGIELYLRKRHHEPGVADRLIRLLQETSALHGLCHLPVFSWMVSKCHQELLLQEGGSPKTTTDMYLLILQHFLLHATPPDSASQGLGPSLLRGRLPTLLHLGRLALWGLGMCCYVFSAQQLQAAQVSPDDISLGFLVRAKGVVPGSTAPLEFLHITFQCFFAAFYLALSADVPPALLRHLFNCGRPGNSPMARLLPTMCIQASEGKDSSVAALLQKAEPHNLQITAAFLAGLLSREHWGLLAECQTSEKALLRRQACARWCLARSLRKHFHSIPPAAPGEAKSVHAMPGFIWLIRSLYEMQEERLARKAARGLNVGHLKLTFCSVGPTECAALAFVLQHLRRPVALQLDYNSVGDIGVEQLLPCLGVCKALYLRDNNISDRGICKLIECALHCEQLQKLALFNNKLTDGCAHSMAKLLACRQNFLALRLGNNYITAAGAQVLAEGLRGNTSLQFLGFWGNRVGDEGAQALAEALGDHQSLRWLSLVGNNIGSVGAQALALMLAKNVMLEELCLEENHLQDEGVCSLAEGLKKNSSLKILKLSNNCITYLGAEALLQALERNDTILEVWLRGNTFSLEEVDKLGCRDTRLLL
Signal transducer and activator of transcription 3, sequence (P40763 whole entry): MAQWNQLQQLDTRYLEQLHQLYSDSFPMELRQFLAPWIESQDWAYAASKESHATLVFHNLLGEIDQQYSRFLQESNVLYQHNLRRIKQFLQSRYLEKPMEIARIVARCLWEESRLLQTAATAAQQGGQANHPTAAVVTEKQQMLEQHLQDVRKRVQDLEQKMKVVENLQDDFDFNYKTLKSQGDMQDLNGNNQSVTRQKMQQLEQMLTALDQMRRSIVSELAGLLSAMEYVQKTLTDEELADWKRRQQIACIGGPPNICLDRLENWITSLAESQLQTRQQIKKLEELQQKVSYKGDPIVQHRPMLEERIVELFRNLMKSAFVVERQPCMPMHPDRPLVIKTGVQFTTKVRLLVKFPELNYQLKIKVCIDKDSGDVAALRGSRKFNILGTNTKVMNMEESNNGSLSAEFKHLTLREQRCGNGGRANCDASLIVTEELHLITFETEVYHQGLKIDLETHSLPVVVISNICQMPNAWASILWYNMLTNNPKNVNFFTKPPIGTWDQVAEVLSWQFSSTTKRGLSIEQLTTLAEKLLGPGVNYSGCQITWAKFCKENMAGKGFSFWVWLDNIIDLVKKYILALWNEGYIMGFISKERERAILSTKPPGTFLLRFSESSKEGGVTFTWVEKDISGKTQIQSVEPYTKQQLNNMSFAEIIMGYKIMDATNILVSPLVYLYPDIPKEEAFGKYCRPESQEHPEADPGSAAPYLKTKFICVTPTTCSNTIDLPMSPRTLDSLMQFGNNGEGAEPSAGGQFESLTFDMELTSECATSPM
Tumor necrosis factor, sequence (P01375 whole entry): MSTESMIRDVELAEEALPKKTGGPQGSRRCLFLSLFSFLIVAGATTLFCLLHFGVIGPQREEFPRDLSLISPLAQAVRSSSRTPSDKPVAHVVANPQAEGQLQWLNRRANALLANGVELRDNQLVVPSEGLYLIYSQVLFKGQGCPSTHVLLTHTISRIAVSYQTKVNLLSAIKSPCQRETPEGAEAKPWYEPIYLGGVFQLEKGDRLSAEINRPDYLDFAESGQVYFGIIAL

CC(C)Sc1nc2c(c(=O)[nH]c(=O)n2C)n1Cc1ccccc1
IC50 (Interleukin-8 [1]): > 25 µM (inactive) | IC50 (Interleukin-8 [2]): 3.31 µM (active) | IC50 (Tumor necrosis factor): > 20 µM (inactive) | IC50 (HEK293 [3]): > 20 µM (inactive) | IC50 (HEK293 [4]): > 20 µM (inactive) | IC50 [5]: > 20 µM (inactive) | IC50 [6]: 1.99 µM (active) | IC50 [7]: 18.1 µM (active) | IC50 [8]: 18.5 µM (active)

CC1(C)C(=O)Nc2ccccc2N1C(=O)COC(=O)c1cc(Cl)cc(Cl)c1
EC50 (Hexokinase HKDC1): 49.1 µM (inactive) | EC50 (Hexokinase-1): 65.2 µM (inactive)

OC(c1ccccc1)C1CCN(c2ncnc3sccc23)CC1 (stereo not drawn)
IC50 [9]: > 55.7 µM (inactive) | IC50 [10]: 1.84 µM (active)

CN(Cc1ccccc1)C(=O)Nc1ccc(Cl)cc1
EC50 [11]: > 100 µM (inactive) | IC50 [12]: > 100 µM (inactive)

O=C(O)COc1ccc2ccccc2c1
IC50 [13]: 54.7 µM (active) | IC50 [14]: > 99 µM (inactive) | IC50 [15]: > 100 µM (inactive) | IC50 [16]: > 100 µM (inactive) | IC50 [17]: > 99 µM (inactive) | IC50 [18]: > 100 µM (inactive) | IC50 [19]: > 100 µM (inactive) | IC50 [20]: > 100 µM (inactive)
